12 compounds from ChEMBL document CHEMBL1201862, “PubChem BioAssay data set” (2004) can be followed below.

Among the test systems are SN12C; HCC 2998; SNB-75; MOLT-4; SF-268; UACC-257; 786-0; NCI-H226; SW-620; HCT-15; SK-OV-3; DU-145; OVCAR-5; RPMI-8226; UACC-62; PC-3; SK-MEL-5; EKVX; NCI-H522; SR.
Holding throughout (assay): DTP human tumour cell line panel, 48 h

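Compound exposure: 48 hours, 5 concentrations, 96-well plates. Abbreviation: GI50, concentration required for 50% inhibition of growth.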 Calls of active or inactive are those of the source. Cut-off read from the data, not from the text of the source: active = GI50 up to about 1.1 µM and inactive = higher.

`CCOC(=O)/C=C1/Nc2cc(F)c(F)cc2NC1=O`: the GI50 with SN12C, with HCC 2998, in the assay with SNB-75, in the assay with MOLT-4, in the assay with SF-268 and with UACC-257 was > 100 µM (inactive) each time. Further, the GI50 is > 100 µM (inactive) in the assay with 786-0; > 100 µM (inactive) in the assay on NCI-H226; > 100 µM (inactive) with SW-620; more than 100 µM in the assay on HCT-15; > 100 µM (inactive) in the assay on SK-OV-3; > 100 µM (inactive) in the assay with DU-145. Further, the GI50 in the assay on OVCAR-5, with RPMI-8226, with UACC-62, with PC-3, in the assay on SK-MEL-5 and in the assay with EKVX was > 100 µM (inactive) throughout.
Turning to `O=c1oc(-c2ccccc2)c(-c2ccccc2)n1-c1ccc(Br)cc1`, the GI50 in the assay with SN12C was 71.3 µM (inactive); in the assay on SNB-75 it was 12 µM (inactive); with MOLT-4, > 100 µM (inactive); in the assay on SF-268, 55 µM (inactive); in the assay with UACC-257, 86.9 µM (inactive); with 786-0 it was 32.4 µM (inactive). The GI50 with NCI-H226 was > 100 µM (inactive); in the assay with SW-620, > 100 µM (inactive); in the assay on HCT-15, more than 100 µM; with SK-OV-3 it was 31.1 µM (inactive); with DU-145 it was 21 µM (inactive); with OVCAR-5, > 100 µM (inactive). The GI50 in the assay on NCI-H522 was 17.2 µM (inactive); in the assay with UACC-62 it was 73.8 µM (inactive); with PC-3, > 100 µM (inactive); in the assay with SK-MEL-5, 76.6 µM (inactive); in the assay on EKVX, 54.1 µM (inactive).
For the compound `CCN(CC)C(=O)Cn1c2c(c3ccccc31)CCCC2`, the GI50 is > 100 µM (inactive) with SN12C; > 100 µM (inactive) in the assay with HCC 2998; > 100 µM (inactive) in the assay on SF-268; > 100 µM (inactive) in the assay with UACC-257; 49.9 µM (inactive) in the assay with SR; > 100 µM (inactive) in the assay with 786-0. The GI50 with SW-620 was > 100 µM (inactive); in the assay with HCT-15 it was 74.6 µM; in the assay on SK-OV-3, > 100 µM (inactive); in the assay with OVCAR-5 it was > 100 µM (inactive); in the assay on RPMI-8226, 56.8 µM (inactive); with UACC-62, 99.8 µM (inactive). Also, the GI50 in the assay on PC-3 was 68.5 µM (inactive); in the assay on SK-MEL-5, 64 µM (inactive); in the assay on EKVX, > 100 µM (inactive).
Regarding `[O-][S+]1Cc2ccccc2CSS1` (configuration not stated), the GI50 in the assay on SN12C was 14.4 µM (inactive); in the assay with HCC 2998, 26.1 µM (inactive); with SNB-75, 19.6 µM (inactive); in the assay with MOLT-4, 12.6 µM (inactive); in the assay with SF-268 it was 23.9 µM (inactive); in the assay with UACC-257 it was 14.5 µM (inactive). For the same compound, the GI50 in the assay on SR is 13.9 µM (inactive); in the assay with 786-0, 15.7 µM (inactive); in the assay on NCI-H226 it was 27.2 µM (inactive); in the assay on SW-620, 13.6 µM (inactive); with HCT-15, 13 µM; in the assay with SK-OV-3 it was 44.3 µM (inactive). The GI50 was 16.3 µM (inactive) in the assay on OVCAR-5; 16.3 µM (inactive) in the assay with RPMI-8226; 6.28 µM (inactive) in the assay with NCI-H522; 13 µM (inactive) in the assay on UACC-62; 13.5 µM (inactive) in the assay with SK-MEL-5; 25.2 µM (inactive) with EKVX.
Regarding `CCCCC1(C(NC(=O)c2ccccc2Cl)c2ccncc2)C(=O)N(c2ccccc2)N(c2ccccc2)C1=O` (configuration not stated), the GI50 is 94.4 µM (inactive) in the assay with SN12C; 57.5 µM (inactive) with HCC 2998; 12.4 µM (inactive) in the assay on SNB-75; 11.9 µM (inactive) in the assay on MOLT-4; > 100 µM (inactive) in the assay on SF-268; 29.7 µM (inactive) in the assay on UACC-257. For the same compound, the GI50 in the assay with SR is 55.1 µM (inactive); with 786-0 it was 83.4 µM (inactive); with NCI-H226 it was 66.8 µM (inactive); in the assay on SW-620, 78.7 µM (inactive); in the assay on HCT-15, 38.5 µM; in the assay with SK-OV-3, 74.1 µM (inactive). The GI50 in the assay with OVCAR-5 was > 100 µM (inactive); in the assay with RPMI-8226 it was 21.2 µM (inactive); with NCI-H522 it was 31.6 µM (inactive); in the assay with UACC-62, 69.5 µM (inactive); with SK-MEL-5 it was 18.1 µM (inactive); with EKVX, 58.3 µM (inactive).
With `CCOc1ccc(N(CC(=O)N2CC(=O)Nc3cc(C)c(C)cc32)C(C)=O)cc1`, the GI50 with SN12C is > 100 µM (inactive); in the assay on HCC 2998, > 100 µM (inactive); in the assay on SNB-75, > 100 µM (inactive); in the assay with MOLT-4, > 100 µM (inactive); in the assay on SF-268, 87.5 µM (inactive); with UACC-257, > 100 µM (inactive). Also, the GI50 was > 100 µM (inactive) with SR; > 100 µM (inactive) with 786-0; > 100 µM (inactive) in the assay on NCI-H226; > 100 µM (inactive) in the assay on SW-620; more than 100 µM in the assay with HCT-15; > 100 µM (inactive) with SK-OV-3. Moreover, the GI50 in the assay with OVCAR-5, in the assay on RPMI-8226, in the assay on NCI-H522, in the assay with UACC-62, in the assay with SK-MEL-5 and with EKVX was > 100 µM (inactive) each time.
Take `COc1cnc2oc3ccc(O)cc3c2c1-c1ccccc1`: the GI50 in the assay on SN12C was > 100 µM (inactive); with HCC 2998, 27.7 µM (inactive); in the assay on SNB-75 it was > 100 µM (inactive); with MOLT-4, > 100 µM (inactive); in the assay with SF-268, 4 µM (inactive); with UACC-257, 88.5 µM (inactive). The GI50 with 786-0 is 21.9 µM (inactive); in the assay on SW-620, > 100 µM (inactive); with HCT-15, more than 100 µM; in the assay with SK-OV-3 it was > 100 µM (inactive); in the assay on DU-145, > 100 µM (inactive); with OVCAR-5, 24.1 µM (inactive). Besides, the GI50 is > 100 µM (inactive) in the assay on RPMI-8226; > 100 µM (inactive) with NCI-H522; > 100 µM (inactive) with PC-3; 61.9 µM (inactive) in the assay with SK-MEL-5; > 100 µM (inactive) in the assay on EKVX.
For the compound `COC(=O)CCCC(=O)NC1=C(Nc2ccccc2)C(=O)c2ccccc2C1=O`, the GI50 is 18 µM (inactive) in the assay with SN12C; 14.7 µM (inactive) with HCC 2998; 18.4 µM (inactive) in the assay with SNB-75; 16.6 µM (inactive) in the assay on MOLT-4; 30.7 µM (inactive) with SF-268; 13.3 µM (inactive) in the assay with UACC-257. The GI50 was 30.2 µM (inactive) in the assay with SR; 17.9 µM (inactive) with 786-0; 25.2 µM (inactive) with SW-620; 15.1 µM in the assay with HCT-15; 22.5 µM (inactive) in the assay on SK-OV-3; 15.2 µM (inactive) with DU-145. Further, the GI50 in the assay with OVCAR-5 is 16.8 µM (inactive); with RPMI-8226 it was 17.6 µM (inactive); in the assay with NCI-H522, 16.9 µM (inactive); with UACC-62, 3.27 µM (inactive); in the assay with EKVX, 24.4 µM (inactive).
As to `CC(C)(C)OC(=O)Nc1cc(-c2ccccc2)co1`, the GI50 in the assay with SN12C is 95.9 µM (inactive); in the assay with HCC 2998 it was > 100 µM (inactive); in the assay on MOLT-4, 33.8 µM (inactive); in the assay on SF-268, 22.7 µM (inactive); in the assay with UACC-257 it was > 100 µM (inactive); in the assay with 786-0, > 100 µM (inactive). Besides, the GI50 in the assay on NCI-H226 was > 100 µM (inactive); in the assay on SW-620 it was > 100 µM (inactive); with HCT-15, more than 100 µM; in the assay on SK-OV-3, > 100 µM (inactive); with DU-145, > 100 µM (inactive); with OVCAR-5, > 100 µM (inactive). In addition, the GI50 was 41.1 µM (inactive) in the assay with RPMI-8226; 17.3 µM (inactive) with NCI-H522; > 100 µM (inactive) in the assay on UACC-62; 50.1 µM (inactive) with PC-3; 96.8 µM (inactive) with SK-MEL-5; > 100 µM (inactive) with EKVX.
For the compound `CC(=O)c1ccc(-c2oc(-c3ccccc3)cc2-c2ccc3c(c2)OCO3)s1`, the GI50 was > 100 µM (inactive) in the assay with SN12C; > 100 µM (inactive) with HCC 2998; > 100 µM (inactive) in the assay on SNB-75; > 100 µM (inactive) in the assay with MOLT-4; 34.4 µM (inactive) with SF-268; > 100 µM (inactive) in the assay with UACC-257. The GI50 in the assay with SR, with 786-0, with NCI-H226, with SW-620, in the assay with SK-OV-3 and in the assay with DU-145 was > 100 µM (inactive) throughout. The GI50 with OVCAR-5, with RPMI-8226, with UACC-62, with SK-MEL-5 and in the assay on EKVX was > 100 µM (inactive) each time.
Turning to `COC(=O)N/N=C(/CCN1CCCC1)CC(c1ccccc1)c1c(O)c2ccccc2oc1=O` (configuration not stated), the GI50 was > 100 µM (inactive) in the assay with SN12C; > 100 µM (inactive) in the assay with HCC 2998; 30.1 µM (inactive) in the assay with SNB-75; > 100 µM (inactive) with MOLT-4; > 100 µM (inactive) in the assay with SF-268; > 100 µM (inactive) in the assay with UACC-257. Moreover, the GI50 is > 100 µM (inactive) in the assay on SR; > 100 µM (inactive) in the assay on 786-0; > 100 µM (inactive) in the assay with NCI-H226; > 100 µM (inactive) with SW-620; more than 100 µM in the assay on HCT-15; > 100 µM (inactive) in the assay with SK-OV-3. Besides, the GI50 was > 100 µM (inactive) in the assay on OVCAR-5; > 100 µM (inactive) in the assay with RPMI-8226; > 100 µM (inactive) in the assay on NCI-H522; 72.8 µM (inactive) with UACC-62; > 100 µM (inactive) with SK-MEL-5; > 100 µM (inactive) in the assay with EKVX.
Take `O=C1NCN(c2ccccc2)C12CCN(CCc1ccc3[nH]c(=S)[nH]c3c1)CC2`: the GI50 with SN12C was 36.1 µM (inactive); with MOLT-4, 41.4 µM (inactive); in the assay on SF-268 it was 56.9 µM (inactive); in the assay with UACC-257 it was 0.075 µM (active); in the assay with 786-0, 33.5 µM (inactive); in the assay on SW-620 it was 11.9 µM (inactive). Also, the GI50 in the assay with HCT-15 is more than 100 µM; with SK-OV-3 it was > 100 µM (inactive); in the assay with DU-145, 39.7 µM (inactive); in the assay on OVCAR-5, > 100 µM (inactive); in the assay with RPMI-8226 it was 22.3 µM (inactive); in the assay with NCI-H522, 43.4 µM (inactive). Further, the GI50 was 64.9 µM (inactive) in the assay with UACC-62, 24.3 µM (inactive) with PC-3, 17.5 µM (inactive) in the assay with SK-MEL-5 and 88.5 µM (inactive) in the assay on EKVX.

By GI50 is commonly meant the concentration that inhibits growth by half.
